Data published in US20210177812A1, “METHODS OF SUPPRESSING MYELOID-DERIVED SUPPRESSOR CELLS IN PATIENTS” (MediciNova, Inc., priority 2018, published 2021).
Entries after “also recorded” stand apart in the source; their conditions may differ. Like-named read-outs stand apart in the source and are kept apart here.

Assays:
MDSCs = experiment: T-cell proliferation in the presence of ibudilast-treated MDSCs from GL261/bone marrow co-culture; type: cell-based, mouse; conditions: CFSE-labeled CD3/28-activated splenic T-cells, 3 days with MDSCs; n=6 mice, 2 experiments, P=0.001
Method: (§1) MDSCs were prepared through a co-culture process illustrated in FIG. 1. Glioma cell line GL261 is cultured together with freshly isolated bone marrow for 4 days. During this 4-day process the glioma cell line initiates subsets of the naïve monocytes within the bone marrow to become both monocytic MDSCs (M-MDSCs) and granulocytic MDSCs (G-MDSCs) distinguished via flow cytometry using CD11b, Ly6C, and GR1. The GR1+ population was harvested at day 4 via magnetic bead separation. Once isolated the MDSCs were combined with freshly isolated splenic T-cells which were labeled with CFSE and activated using CD3/28 activation beads. The T-cell proliferation was then determined 3 days after being combined with MDSCs by measuring the fluorescence intensity of each CD3 T-cell after 3 days of being cultured with MDSCs (FIG. 2).

[1] = test system: mouse model of glioma GL261; experiment: Flow cytometry of MDSCs and T-cells in tumor, blood, spleen and bone marrow, mouse model of glioma GL261; type: in vivo; conditions: day 19; for monocytic MDSCs (M-MDSCs) in the tumor: ibudilast dosed 50 mg/kg i.p. daily from day 5 (AV1013 dose not given), vs vehicle
Method: (§2) Ibudilast was tested in vivo using the mouse model of glioma GL261. Cells were implanted on day 0 and then a 5-day engrafiment period was used to ensure that the treatment being tested was performing by inhibiting tumor growth and not engraftment. After 5 days the mice were intraperitoneally injected daily with ibudilast at 50 mg/kg in a vehicle consisting of PEG 400 and (2-hydroxypropyl)-p-cyclodextrin to enhance solubility with low toxicity or alternatively mice were treated with AV1013. At day 19 post injection, 3 mice from each group (ibudilast, AV1013 or vehicle) were sacrificed for flow cytometry analysis of MDSCs, T-cells, and NK cells in the tumor, blood, spleen, and bone marrow.

[2] = test system: MIF/CD74 signaling pathway; experiment: mRNA expression of CD45+ cells isolated from vehicle- and ibudilast-treated tumors; type: in vivo, mouse; conditions: n=3 per group
Method: as §2
Further analysis was conducted on the mRNA expression of CD45+ cells isolated from vehicle- and ibudilast-treated tumors.

GL261 = experiment: In vitro treatment of co-culture for 24 h, MCP-1 (CCL2) secretion; type: cell-based, mouse; conditions: co-culture treated 24 h in vitro
MCP-1 = experiment: Serum cytokine analysis at day 19 of treated GL261 mice; type: in vivo, mouse; conditions: day 19, 3 animals per group
Method: as §2

[3] = test system: mouse model of glioma GL261; experiment: Kaplan Meier survival analysis, mouse model of glioma GL261; type: in vivo; conditions: n=10 per group; vehicle median 19 days; Log Rank p=0.016
Method: as §2
The median survival times for vehicle-treated mice (n=10) was 19 days whereas ibudilast-treated mice (n=10) were undetermined at this point (Log Rank p=0.016, […]) (FIG. 14).

M-MDSCs = experiment: MDSC generation in co-cultures with MIF inhibitors quantified by flow cytometry; type: cell-based, mouse; conditions: GL261/bone marrow co-culture
Method: as §1

[4] = in vivo, cited from earlier work

| SMILES | suppressive abilities of MDSCs on T-cell proliferation (MDSCs) | CD8 T-cells ([1]; 50 mg/kg i.p. daily, FIG. 7) | CD4 T-cells ([1]; 50 mg/kg i.p. daily, FIG. 8) | monocytic MDSCs (M-MDSCs) in the blood ([1]; blood, 50 mg/kg i.p. daily from day 5, 50 mg/kg) | monocytic MDSCs (M-MDSCs) in the marrow ([1]; bone marrow, 50 mg/kg i.p. daily from day 5, 50 mg/kg) | monocytic MDSCs (M-MDSCs) in the spleen ([1]; spleen, 50 mg/kg i.p. daily from day 5, 50 mg/kg) | immune suppressive T-regulatory cells ([1]; tumor vs blood, marrow, spleen, 50 mg/kg i.p. daily) | monocytic MDSCs (M-MDSCs) in the tumor ([1]; 50 mg/kg) | CCR2 mRNA expression [2] | CD74 mRNA expression [2] | MCP-1 (CCL2) mRNA expression [2] | MIF mRNA expression [2] | myeloid genes mRNA expression [2] | secretion of MCP-1 (CCL2) (GL261) | serum MCP-1 level (MCP-1) | survival versus vehicle [3] | M-MDSC generation (M-MDSCs) | CNS distribution / penetration [4] | CNS distribution / penetration ([4]; listed as Ibudilast) | monocytic MDSCs (M-MDSCs) in the tumor [1] |
| --- | --- | --- | --- | --- | --- | --- | --- | --- | --- | --- | --- | --- | --- | --- | --- | --- | --- | --- | --- | --- |
| CC(C)C(=O)c1c(C(C)C)nn2ccccc12 [ibudilast, 3-isobutyryl-2-isopropylpyrazolo(1,5-a)pyridine] | effectively reduced the suppressive abilities of MDSCs | decreased | increased | not altered; also recorded: not M-MDSCs associated with blood, spleen or bone marrow | not altered; also recorded: not M-MDSCs associated with blood, spleen or bone marrow | not altered; also recorded: not M-MDSCs associated with blood, spleen or bone marrow | reduced only in the tumors | reduced; also recorded: reduces M-MDSCs associated with tumor | significantly reduced | significantly reduced | significantly reduced | not reduced | Overall reductions | reduced GLP261 secretion MCP-1 (CCL2) in a dose-dependent manner; also recorded: reduced GL261 secretion of MCP-1(ccl2) in a dose dependent manner | reduction | Significant survival advantages | ability to reduce M-MDSC generation | good CNS penetration | distributes well to the CNS | – |
| CC(N)C(=O)c1c(C(C)C)nn2ccccc12 (centres unmarked) [AV1013] | – | – | – | – | – | – | – | – | – | – | – | – | – | – | – | – | – | – | – | no significant suppression |
